One may read the IC50 as the concentration needed to halve the response being measured.

The structures appear in SMILES notation.

This assay concerns the target Recombinant human ATX (Homo sapiens (Human), UniProt Q13822). Nature of the assay: ATX inhibition assay (choline release, Amplex Red fluorescence). The class given is biochemical. The conditions noted are these: ATX 10 nM, LPC 18:1 10 μM, 37° C., 20 min pre-incubation; mean of n≧2. The essentials:
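Activity was taken from the slope of resorufin fluorescence (530/590 nm, read every 2 min for 40 min at 37 °C) produced by choline liberated from 10 μM oleoyl LPC.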
As for `Cc1nnn(Cc2cc(Cl)ccc2/C=C/C(=O)N2CCC(CCN(C)C(=O)c3c[nH]c(=O)o3)CC2)n1` [Example 148, (E)-N-(2-(1-(3-(4-Chloro-2-((5-methyl-2H-tetrazol-2-yl)methyl)phenyl)acryloyl)piperidin-4-yl)ethyl)-N-methyl-2-oxo-2,3-dihydrooxazole-5-carboxamide], the IC50 amounted to 8.9 nM.
Take `CCOC(=O)c1cnn(CC2(O)CCN(C(=O)/C=C/c3ccc(Cl)cc3Cn3nnc(C)n3)CC2)c1` [Example 32, (E)-Ethyl 1-((1-(3-(4-chloro-2-((5-methyl-2H-tetrazol-2-yl)methyl)phenyl)acryloyl)-4-hydroxypiperidin-4-yl)methyl)-1H-pyrazole-4-carboxylate]: the IC50 amounted to 3.5 nM.
`Cc1nnn(Cc2cc(Cl)ccc2/C=C/C(=O)N2CCC(O)C[C@H]2C)n1` (single isomer, unassigned) [Example 50b, (E)-3-(4-chloro-2-((5-methyl-2H-tetrazol-2-yl)methyl)phenyl)-1-((2R, 4R or 4S)-4-hydroxy-2-methylpiperidin-1-yl)prop-2-en-1-one]: the IC50 was 79 nM.
The value for `CCOc1c(NCCC2CN(C(=O)/C=C/c3ccc(Cl)cc3Cn3nnc(C)n3)CCO2)c(=O)c1=O` (stereo not drawn) [Example 150, (E)-3-((2-(4-(3-(4-Chloro-2-((5-methyl-2H-tetrazol-2-yl)methyl)phenyl)acryloyl)morpholin-2-yl)ethyl)amino)-4-ethoxycyclobut-3-ene-1,2-dione] was 6.9 nM; that for `Cc1nnn(Cc2cc(C(F)(F)F)ccc2/C=C/C(=O)N2CCN(CC(=O)OC(C)(C)C)C[C@H]2C)n1` [Example 65, (R,E)-tert-Butyl 2-(3-methyl-4-(3-(2-((5-methyl-2H-tetrazol-2-yl)methyl)-4-(trifluoromethyl)phenyl)acryloyl)piperazin-1-yl)acetate] was 5.5 nM; that for `Cc1nnn(Cc2cc(Cl)ccc2/C=C/C(=O)N2CCC(O)(Cn3cc(C(=O)N4CCOCC4)cn3)CC2)n1` [Example 14, (E)-3-(4-Chloro-2-((5-methyl-2H-tetrazol-2-yl)methyl)phenyl)-1-(4-hydroxy-4-((4-(morpholine-4-carbonyl)-1H-pyrazol-1-yl)methyl)piperidin-1-yl)prop-2-en-1-one] was 12 nM.
To `Cc1nnn(Cc2cc(C(F)(F)F)ccc2/C=C/C(=O)N2CCCC[C@H]2c2nnc(C)o2)n1` [Example 1, (S,E)-1-(2-(5-Methyl-1,3,4-oxadiazol-2-yl)piperidin-1-yl)-3-(2-((5-methyl-2H-tetrazol-2-yl)methyl)-4-(trifluoromethyl)phenyl)prop-2-en-1-one] belongs 8.8 nM; to `Cc1nnn(Cc2cc(Cl)ccc2/C=C/C(=O)N2CCC(CC(=O)N3CCOCC3)CC2)n1` [Example 129, (E)-3-(4-Chloro-2-((5-methyl-2H-tetrazol-2-yl)methyl)phenyl)-1-(4-(2-morpholino-2-oxoethyl)piperidin-1-yl)prop-2-en-1-one], 49 nM.
Turning to `Cc1noc(C2CCCCN2C(=O)/C=C/c2ccc(C(F)(F)F)cc2Cn2nnc(C)n2)n1` (single isomer, unassigned) [Example 5a, (R,E)-1-(2-(3-methyl-1,2,4-oxadiazol-5-yl)piperidin-1-yl)-3-(2-((5-methyl-2H-tetrazol-2-yl)methyl)-4-(trifluoromethyl)phenyl)prop-2-en-1-one or (S,E)-1-(2-(3-methyl-1,2,4-oxadiazol-5-yl)piperidin-1-yl)-3-(2-((5-methyl-2H-tetrazol-2-yl)methyl)-4-(trifluoromethyl)phenyl)prop-2-en-1-one], the IC50 amounted to 3.5 nM.
To `Cc1nnn(Cc2cc(Cl)ccc2/C=C/C(=O)N2CCC(c3nnc(CC4CCOCC4)o3)CC2)n1` [Example 110, (E)-3-(4-Chloro-2-((5-methyl-2H-tetrazol-2-yl)methyl)phenyl)-1-(4-(5-((tetrahydro-2H-pyran-4-yl)methyl)-1,3,4-oxadiazol-2-yl)piperidin-1-yl)prop-2-en-1-one] belongs 5.2 nM.
To `Cc1nnn(Cc2cc(Cl)ccc2/C=C/C(=O)N2CCC(c3ncc(C)o3)CC2)n1` [Example 24, (E)-3-(4-Chloro-2-((5-methyl-2H-tetrazol-2-yl)methyl)phenyl)-1-(4-(5-methyloxazol-2-yl)piperidin-1-yl)prop-2-en-1-one] belongs 4 nM.
For the compound `CCNC(=O)COC1CCCN(C(=O)/C=C/c2ccc(Cl)cc2Cn2nnc(C)n2)C1` (stereo not drawn) [Example 49.22, (E)-2-((1-(3-(4-Chloro-2-((5-methyl-2H-tetrazol-2-yl)methyl)phenyl)acryloyl)piperidin-3-yl)oxy)-N-ethylacetamide], the IC50 turned out to be 110 nM.
To `Cc1nnn(Cc2cc(Cl)ccc2/C=C/C(=O)N2CCC(Cc3nnc(C)o3)CC2)n1` [Example 127, (E)-3-(4-Chloro-2-((5-methyl-2H-tetrazol-2-yl)methyl)phenyl)-1-(4-((5-methyl-1,3,4-oxadiazol-2-yl)methyl)piperidin-1-yl)prop-2-en-1-one] belongs 60 nM; to `CNC(=O)[C@@H]1CCCCN1C(=O)/C=C/c1ccc(C(F)(F)F)cc1Cn1nnc(C)n1` [Example 6, (S,E)-N-Methyl-1-(3-(2-((5-methyl-2H-tetrazol-2-yl)methyl)-4-(trifluoromethyl)phenyl)acryloyl)piperidine-2-carboxamide], 18 nM; to `C[C@@H]1CN(Cc2ccc(F)cc2)CCN1C(=O)/C=C/c1ccc(Cl)cc1Cc1nnn(C)n1` [Example 143, (R,E)-3-(4-Chloro-2-((2-methyl-2H-tetrazol-5-yl)methyl)phenyl)-1-(4-(4-fluorobenzyl)-2-methylpiperazin-1-yl)prop-2-en-1-one], 31 nM.
To `Cc1cnn(C2CCN(C(=O)/C=C/c3ccc(Cl)cc3Cn3nnc(C)n3)CC2)c1` [Example 28, (E)-3-(4-Chloro-2-((5-methyl-2H-tetrazol-2-yl)methyl)phenyl)-1-(4-(4-methyl-1H-pyrazol-1-yl)piperidin-1-yl)prop-2-en-1-one] belongs 6.3 nM; to `Cc1nnn(Cc2cc(C(F)(F)F)ccc2/C=C/C(=O)N2CCN(Cc3coc(C)n3)C[C@H]2CO)n1` [Example 132, (S,E)-1-(2-(Hydroxymethyl)-4-((2-methyloxazol-4-yl)methyl)piperazin-1-yl)-3-(2-((5-methyl-2H-tetrazol-2-yl)methyl)-4-(trifluoromethyl)phenyl)prop-2-en-1-one], 14 nM.
Take `Cc1nnn(Cc2cc(Cl)ccc2/C=C/C(=O)N2CCC(O)(Cn3cc(C(=O)O)cn3)CC2)n1` [Example 35, (E)-1-((1-(3-(4-Chloro-2-((5-methyl-2H-tetrazol-2-yl)methyl)phenyl)acryloyl)-4-hydroxypiperidin-4-yl)methyl)-1H-pyrazole-4-carboxylic acid]: the IC50 is 924 nM.
On to `Cc1nnn(Cc2cc(Cl)ccc2/C=C/C(=O)N2CCC(Cc3nnc(CN4CCOCC4)o3)CC2)n1` [Example 136, (E)-3-(4-Chloro-2-((5-methyl-2H-tetrazol-2-yl)methyl)phenyl)-1-(4-((5-(morpholinomethyl)-1,3,4-oxadiazol-2-yl)methyl)piperidin-1-yl)prop-2-en-1-one], for which the IC50 worked out at 32 nM.
Take `Cc1nnn(Cc2cc(C(F)F)ccc2/C=C/C(=O)N2CCC(c3noc(C)n3)CC2)n1` [Example 55, (E)-3-(4-(Difluoromethyl)-2-((5-methyl-2H-tetrazol-2-yl)methy)phenyl)-1-(4-(5-methyl-1,2,4-oxadiazol-3-yl)piperidin-1-yl)prop-2-en-1-one]: the IC50 is 8 nM.
Regarding `Cc1nnn(Cc2cc(Cl)ccc2/C=C/C(=O)N2CCCC(c3nncn3C)C2)n1` (stereo not drawn) [Example 49.16, (E)-3-(4-Chloro-2-((5-methyl-2H-tetrazol-2-yl)methyl)phenyl)-1-(3-(4-methyl-4H-1,2,4-triazol-3-yl)piperidin-1-yl)prop-2-en-1-one], the IC50 was found to be 1060 nM.
As to `Cc1nnn(Cc2cc(Cl)ccc2/C=C/C(=O)N2CCCC(c3nc(C(C)C)no3)C2)n1` (single isomer, unassigned) [Example 34b, (R or S, E)-3-(4-chloro-2-((5-methyl-2H-tetrazol-2-yl)methyl)phenyl)-1-(3-(3-isopropyl-1,2,4-oxadiazol-5-yl)piperidin-1-yl)prop-2-en-1-one], the IC50 worked out at 149 nM.
The value for `Cc1nnn(Cc2cc(Cl)ccc2/C=C/C(=O)N2CCN(Cc3cc(-c4ccccc4)nn3C)CC2)n1` [Example 140.6, (E)-3-(4-Chloro-2-((5-methyl-2H-tetrazol-2-yl)methyl)phenyl)-1-(4-((1-methyl-3-phenyl-1H-pyrazol-5-yl)methyl)piperazin-1-yl)prop-2-en-1-one] was 42 nM; that for `Cc1nnn(Cc2cc(C(F)(F)F)ccc2/C=C/C(=O)N2C[C@@H](F)C[C@H]2CO)n1` [Example 131, (E)-1-((2S,4S)-4-Fluoro-2-(hydroxymethyl)pyrrolidin-1-yl)-3-(2-((5-methyl-2H-tetrazol-2-yl)methyl)-4-(trifluoromethyl)phenyl)prop-2-en-1-one] was 23 nM; that for `Cc1noc(C2CCCCN2C(=O)/C=C/c2ccc(Cl)cc2Cn2nnc(C)n2)n1` (racemic) [Example 23, (rac)-(E)-3-(4-Chloro-2-((5-methyl-2H-tetrazol-2-yl)methyl)phenyl)-1-(2-(3-methyl-1,2,4-oxadiazol-5-yl)piperidin-1-yl)prop-2-en-1-one] was 28 nM.
To `Cc1nnn(Cc2cc(F)ccc2/C=C/C(=O)N2CCC(Cc3nnc(C)o3)CC2)n1` [Example 41, (E)-3-(4-Fluoro-2-((5-methyl-2H-tetrazol-2-yl)methyl)phenyl)-1-(4-((5-methyl-1,3,4-oxadiazol-2-yl)methyl)piperidin-1-yl)prop-2-en-1-one] belongs 654 nM.
`Cc1nnn(Cc2cc(C(F)(F)F)ccc2/C=C/C(=O)N2CCC(c3noc(C)n3)CC2)n1` [Example 4, (E)-1-(4-(5-Methyl-1,2,4-oxadiazol-3-yl)piperidin-1-yl)-3-(2-((5-methyl-2H-tetrazol-2-yl)methyl)-4-(trifluoromethyl)phenyl)prop-2-en-1-one]: the half-inhibitory concentration (IC50) turned out to be 5.8 nM.

The record behind these values is patent US9763957B2, “Autotaxin inhibitors” (Novartis AG, priority 2013, dated 2017).
